From paper doi:10.1101/2023.03.24.534094v2 (biorxiv, 2023)
Where two headings read alike, the source gives them in different places. Blank lines part the entries; values can stand above or below the molecule they belong to.

How the values were obtained:
Assay in all cases: biochemical
[1] = molecular target: T1, MARK4 (Homo sapiens, UniProt Q96L34)
T1 sequence (Q96L34 1-752): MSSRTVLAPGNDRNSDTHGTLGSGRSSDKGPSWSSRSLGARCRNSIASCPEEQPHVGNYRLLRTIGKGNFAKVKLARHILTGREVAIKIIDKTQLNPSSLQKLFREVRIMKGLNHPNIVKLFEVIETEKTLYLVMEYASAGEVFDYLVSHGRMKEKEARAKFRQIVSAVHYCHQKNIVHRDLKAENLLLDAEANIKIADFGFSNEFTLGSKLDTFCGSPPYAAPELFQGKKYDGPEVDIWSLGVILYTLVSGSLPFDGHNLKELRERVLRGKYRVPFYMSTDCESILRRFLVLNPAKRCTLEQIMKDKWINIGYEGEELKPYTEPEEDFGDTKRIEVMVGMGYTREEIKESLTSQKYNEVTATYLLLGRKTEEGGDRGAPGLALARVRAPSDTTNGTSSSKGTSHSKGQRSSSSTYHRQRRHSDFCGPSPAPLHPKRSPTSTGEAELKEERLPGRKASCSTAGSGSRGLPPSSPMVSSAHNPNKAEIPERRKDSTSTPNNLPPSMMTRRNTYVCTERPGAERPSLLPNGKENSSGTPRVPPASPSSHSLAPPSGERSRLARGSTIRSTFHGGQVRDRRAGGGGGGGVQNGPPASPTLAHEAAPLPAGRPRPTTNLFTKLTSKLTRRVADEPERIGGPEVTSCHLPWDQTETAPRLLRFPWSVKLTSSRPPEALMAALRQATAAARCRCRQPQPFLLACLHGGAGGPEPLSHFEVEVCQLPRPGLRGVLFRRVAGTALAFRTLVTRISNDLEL

[2] = molecular target: PIM1 (Homo sapiens, UniProt P11309)
PIM1, sequence (P11309 whole entry): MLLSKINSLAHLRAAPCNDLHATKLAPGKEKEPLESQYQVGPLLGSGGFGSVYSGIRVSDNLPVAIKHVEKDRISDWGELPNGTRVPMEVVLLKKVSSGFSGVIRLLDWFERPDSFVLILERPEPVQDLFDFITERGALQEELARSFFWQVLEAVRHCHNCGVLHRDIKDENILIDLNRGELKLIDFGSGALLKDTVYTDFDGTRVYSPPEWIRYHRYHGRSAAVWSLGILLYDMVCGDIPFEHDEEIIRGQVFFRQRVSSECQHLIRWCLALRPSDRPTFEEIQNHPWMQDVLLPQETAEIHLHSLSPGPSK

[3] = molecular target: FES (Homo sapiens, UniProt P07332)
FES, sequence (P07332 whole entry): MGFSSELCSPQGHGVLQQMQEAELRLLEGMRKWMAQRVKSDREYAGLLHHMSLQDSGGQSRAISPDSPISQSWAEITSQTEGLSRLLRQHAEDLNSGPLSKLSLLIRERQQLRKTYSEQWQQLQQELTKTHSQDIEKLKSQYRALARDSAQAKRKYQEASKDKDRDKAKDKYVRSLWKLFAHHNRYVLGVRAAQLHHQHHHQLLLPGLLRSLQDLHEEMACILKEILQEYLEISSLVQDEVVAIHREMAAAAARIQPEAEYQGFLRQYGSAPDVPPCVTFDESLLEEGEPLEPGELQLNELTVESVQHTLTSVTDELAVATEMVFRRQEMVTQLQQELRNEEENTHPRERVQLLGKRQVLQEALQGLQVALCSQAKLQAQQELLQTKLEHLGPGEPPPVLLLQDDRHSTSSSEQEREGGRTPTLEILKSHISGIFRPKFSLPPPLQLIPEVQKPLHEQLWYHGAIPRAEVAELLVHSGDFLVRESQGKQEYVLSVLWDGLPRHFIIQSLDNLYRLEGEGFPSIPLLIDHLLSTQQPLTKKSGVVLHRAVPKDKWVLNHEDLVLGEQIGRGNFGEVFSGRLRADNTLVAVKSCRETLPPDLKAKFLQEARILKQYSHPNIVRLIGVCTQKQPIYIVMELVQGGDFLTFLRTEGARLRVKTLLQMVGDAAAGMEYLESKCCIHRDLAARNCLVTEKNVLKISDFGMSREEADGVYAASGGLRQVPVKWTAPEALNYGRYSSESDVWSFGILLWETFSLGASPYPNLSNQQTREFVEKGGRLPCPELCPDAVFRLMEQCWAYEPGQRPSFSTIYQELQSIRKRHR

[4] = molecular target: CHK2 (Homo sapiens, UniProt O96017)
CHK2, sequence (O96017 whole entry): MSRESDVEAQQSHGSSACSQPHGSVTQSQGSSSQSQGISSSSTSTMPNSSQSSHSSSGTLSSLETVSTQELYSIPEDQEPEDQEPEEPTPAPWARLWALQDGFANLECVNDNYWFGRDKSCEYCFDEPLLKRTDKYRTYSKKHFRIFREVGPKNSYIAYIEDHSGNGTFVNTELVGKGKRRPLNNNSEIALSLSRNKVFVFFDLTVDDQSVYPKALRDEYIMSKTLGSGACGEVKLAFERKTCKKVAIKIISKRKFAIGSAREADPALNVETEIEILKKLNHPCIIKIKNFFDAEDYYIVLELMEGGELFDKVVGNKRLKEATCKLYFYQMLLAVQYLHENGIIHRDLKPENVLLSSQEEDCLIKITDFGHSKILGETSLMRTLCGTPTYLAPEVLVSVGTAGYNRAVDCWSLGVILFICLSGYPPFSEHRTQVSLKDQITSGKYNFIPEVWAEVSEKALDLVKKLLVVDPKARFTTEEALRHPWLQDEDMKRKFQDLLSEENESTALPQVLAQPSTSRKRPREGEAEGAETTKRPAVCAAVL

[5] = molecular target: JNK3 (Homo sapiens, UniProt P53779)
JNK3, sequence (P53779 whole entry): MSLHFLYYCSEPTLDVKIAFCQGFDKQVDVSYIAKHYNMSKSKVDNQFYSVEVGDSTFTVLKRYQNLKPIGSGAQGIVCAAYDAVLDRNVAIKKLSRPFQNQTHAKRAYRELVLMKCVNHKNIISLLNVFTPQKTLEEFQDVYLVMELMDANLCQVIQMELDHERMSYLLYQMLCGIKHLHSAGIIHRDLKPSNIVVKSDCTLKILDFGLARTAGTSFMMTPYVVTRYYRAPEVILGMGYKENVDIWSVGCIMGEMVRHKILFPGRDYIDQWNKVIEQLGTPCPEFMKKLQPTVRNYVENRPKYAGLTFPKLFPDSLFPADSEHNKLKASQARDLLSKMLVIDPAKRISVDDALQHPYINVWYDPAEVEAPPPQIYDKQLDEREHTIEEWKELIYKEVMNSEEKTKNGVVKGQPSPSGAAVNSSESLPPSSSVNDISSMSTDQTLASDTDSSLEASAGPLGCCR

[6] = molecular target: T2, DCAMKL1 (Homo sapiens, UniProt O15075)
T2 sequence (O15075 1-740): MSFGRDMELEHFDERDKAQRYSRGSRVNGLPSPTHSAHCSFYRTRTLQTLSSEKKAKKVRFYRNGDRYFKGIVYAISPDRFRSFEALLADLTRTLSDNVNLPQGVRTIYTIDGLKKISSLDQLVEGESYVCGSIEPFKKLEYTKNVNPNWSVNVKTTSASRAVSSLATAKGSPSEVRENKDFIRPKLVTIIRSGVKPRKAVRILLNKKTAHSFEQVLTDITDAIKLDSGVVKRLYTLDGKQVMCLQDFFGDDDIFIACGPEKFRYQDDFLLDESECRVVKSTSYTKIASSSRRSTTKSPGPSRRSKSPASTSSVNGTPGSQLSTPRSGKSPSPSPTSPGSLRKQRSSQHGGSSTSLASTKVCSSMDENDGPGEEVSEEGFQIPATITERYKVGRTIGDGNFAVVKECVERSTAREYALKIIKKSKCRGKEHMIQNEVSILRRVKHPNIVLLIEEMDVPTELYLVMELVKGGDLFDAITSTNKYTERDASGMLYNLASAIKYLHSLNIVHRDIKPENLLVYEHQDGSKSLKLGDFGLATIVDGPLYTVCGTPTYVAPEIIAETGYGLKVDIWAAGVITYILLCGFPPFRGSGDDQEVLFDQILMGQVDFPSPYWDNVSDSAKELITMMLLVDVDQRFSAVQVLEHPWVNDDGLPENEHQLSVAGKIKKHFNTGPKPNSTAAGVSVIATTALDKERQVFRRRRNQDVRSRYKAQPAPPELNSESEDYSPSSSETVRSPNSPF

[7] = molecular target: CaMKK2 (Homo sapiens, UniProt Q96RR4)
CaMKK2, sequence (Q96RR4 whole entry): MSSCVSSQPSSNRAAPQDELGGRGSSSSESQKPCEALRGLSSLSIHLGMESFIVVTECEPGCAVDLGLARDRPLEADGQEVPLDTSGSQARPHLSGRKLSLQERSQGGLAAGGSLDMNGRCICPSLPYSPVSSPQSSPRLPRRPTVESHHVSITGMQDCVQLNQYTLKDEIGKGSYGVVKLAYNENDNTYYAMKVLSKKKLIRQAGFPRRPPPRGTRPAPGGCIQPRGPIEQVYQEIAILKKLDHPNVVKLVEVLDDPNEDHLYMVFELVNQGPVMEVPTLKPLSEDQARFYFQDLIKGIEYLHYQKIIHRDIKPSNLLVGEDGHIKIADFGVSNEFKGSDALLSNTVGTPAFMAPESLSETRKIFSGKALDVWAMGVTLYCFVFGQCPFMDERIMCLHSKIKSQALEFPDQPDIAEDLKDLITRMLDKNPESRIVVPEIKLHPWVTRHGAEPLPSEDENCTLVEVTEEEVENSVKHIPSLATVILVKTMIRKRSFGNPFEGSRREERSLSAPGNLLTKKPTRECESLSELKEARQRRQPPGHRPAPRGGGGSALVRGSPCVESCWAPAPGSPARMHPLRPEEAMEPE

[8] = molecular target: CLK1 (Homo sapiens, UniProt P49759)
CLK1, sequence (P49759 whole entry): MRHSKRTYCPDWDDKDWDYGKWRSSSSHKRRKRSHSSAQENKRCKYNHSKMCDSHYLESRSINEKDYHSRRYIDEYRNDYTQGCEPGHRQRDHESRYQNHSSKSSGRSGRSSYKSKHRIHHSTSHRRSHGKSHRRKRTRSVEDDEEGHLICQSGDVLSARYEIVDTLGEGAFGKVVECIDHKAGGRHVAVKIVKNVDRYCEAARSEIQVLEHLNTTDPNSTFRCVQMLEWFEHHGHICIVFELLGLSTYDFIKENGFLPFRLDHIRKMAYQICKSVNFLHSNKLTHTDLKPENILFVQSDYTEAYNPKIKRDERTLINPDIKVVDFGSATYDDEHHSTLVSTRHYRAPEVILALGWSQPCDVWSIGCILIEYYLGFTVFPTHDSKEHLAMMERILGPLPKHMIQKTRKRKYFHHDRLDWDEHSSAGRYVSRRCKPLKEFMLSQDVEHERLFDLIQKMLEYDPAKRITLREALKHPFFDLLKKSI

[9] = molecular target: AKT3 (Homo sapiens, UniProt Q9Y243)
AKT3, sequence (Q9Y243 whole entry): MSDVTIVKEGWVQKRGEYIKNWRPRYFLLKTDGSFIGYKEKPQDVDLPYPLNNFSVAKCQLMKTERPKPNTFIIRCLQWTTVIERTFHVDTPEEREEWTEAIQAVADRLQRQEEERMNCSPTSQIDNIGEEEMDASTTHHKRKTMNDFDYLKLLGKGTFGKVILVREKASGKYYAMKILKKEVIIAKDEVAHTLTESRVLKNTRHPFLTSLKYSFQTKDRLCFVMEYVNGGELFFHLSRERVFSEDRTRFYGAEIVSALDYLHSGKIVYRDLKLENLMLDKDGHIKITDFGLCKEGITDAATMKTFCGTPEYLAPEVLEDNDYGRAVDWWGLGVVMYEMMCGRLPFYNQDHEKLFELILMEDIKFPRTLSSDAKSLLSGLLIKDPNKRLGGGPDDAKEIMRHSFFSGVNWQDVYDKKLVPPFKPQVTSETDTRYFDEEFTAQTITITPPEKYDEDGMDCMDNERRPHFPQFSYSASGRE

[10] = molecular target: T3, DYRK2 (Homo sapiens, UniProt Q92630)
T3 sequence (Q92630 1-601): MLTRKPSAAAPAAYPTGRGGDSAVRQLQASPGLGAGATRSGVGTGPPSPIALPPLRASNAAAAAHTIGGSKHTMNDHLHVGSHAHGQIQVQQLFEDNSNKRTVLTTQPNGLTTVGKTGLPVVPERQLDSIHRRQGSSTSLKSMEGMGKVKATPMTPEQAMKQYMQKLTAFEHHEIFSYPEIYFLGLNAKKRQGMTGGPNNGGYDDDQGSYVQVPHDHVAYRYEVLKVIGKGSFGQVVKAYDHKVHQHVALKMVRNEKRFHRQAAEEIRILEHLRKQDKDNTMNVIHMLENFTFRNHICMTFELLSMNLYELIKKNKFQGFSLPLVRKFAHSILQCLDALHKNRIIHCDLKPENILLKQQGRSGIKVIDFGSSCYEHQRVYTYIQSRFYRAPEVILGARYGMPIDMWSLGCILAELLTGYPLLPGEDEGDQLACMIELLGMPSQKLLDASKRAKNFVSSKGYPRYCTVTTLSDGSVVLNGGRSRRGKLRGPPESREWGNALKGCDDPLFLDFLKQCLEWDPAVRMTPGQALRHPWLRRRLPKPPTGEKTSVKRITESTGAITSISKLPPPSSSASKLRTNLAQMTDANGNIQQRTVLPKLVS

[11] = molecular target: CK1d (Homo sapiens, UniProt P48730)
CK1d, sequence (P48730 whole entry): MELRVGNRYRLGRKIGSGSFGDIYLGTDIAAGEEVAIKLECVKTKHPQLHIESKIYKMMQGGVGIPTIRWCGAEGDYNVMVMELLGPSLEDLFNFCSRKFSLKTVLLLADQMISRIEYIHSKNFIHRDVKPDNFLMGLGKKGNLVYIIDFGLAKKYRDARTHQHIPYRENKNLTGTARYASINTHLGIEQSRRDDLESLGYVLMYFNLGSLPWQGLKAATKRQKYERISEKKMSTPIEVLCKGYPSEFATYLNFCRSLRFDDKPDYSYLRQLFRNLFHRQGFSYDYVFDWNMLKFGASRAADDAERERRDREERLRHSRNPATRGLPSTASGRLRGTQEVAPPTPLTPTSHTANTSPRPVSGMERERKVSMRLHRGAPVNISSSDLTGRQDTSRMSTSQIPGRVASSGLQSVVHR

SMILES: CNc1ncc2cc(-c3cc(Br)ccc3Cl)c(=O)n(C[C@H]3OC[C@H](N)CO3)c2n1 [compound 7, 8-(((2r,5r)-5-Amino-1,3-dioxan-2-yl)methyl)-6-(5-bromo-2-chlorophenyl)-2-(methylamino)pyrido[2,3-d]pyrimidin-7(8H)-one]
- ΔTm at 10 µM ([1]; read-out: dTm 7): 0.8 °C
- ΔTm at 10 µM ([2]; read-out: dTm 7): 0.6 °C
- ΔTm at 10 µM ([3]; read-out: dTm 7): 1.1 °C
- ΔTm at 10 µM ([4]; read-out: dTm 7): 0.2 °C
- ΔTm at 10 µM ([5]; read-out: dTm 7): 0.5 °C
- ΔTm at 10 µM ([6]; read-out: dTm 7): 1 °C
- ΔTm at 10 µM ([7]; read-out: dTm 7): 0.5 °C
- ΔTm at 10 µM ([8]; read-out: dTm 7): 0.4 °C
- ΔTm at 10 µM ([9]; read-out: dTm 7): 0 °C
- ΔTm at 10 µM ([10]; read-out: dTm 7): 0 °C
- ΔTm at 10 µM ([11]; read-out: dTm 7): -0.1 °C

SMILES: CNc1ncc2cc(-c3ccccc3Cl)c(=O)n(CCCCN)c2n1 [compound 4, 8-(4-Aminobutyl)-6-(2-chlorophenyl)-2-(methylamino)pyrido[2,3-d]pyrimidin-7(8H)-one]
- ΔTm at 10 µM ([1]; read-out: dTm MR21 (4)): 3 °C
- ΔTm at 10 µM ([2]; read-out: dTm MR21 (4)): 0.4 °C
- ΔTm at 10 µM ([3]; read-out: dTm MR21 (4)): 3 °C
- ΔTm at 10 µM ([4]; read-out: dTm MR21 (4)): 0.9 °C
- ΔTm at 10 µM ([5]; read-out: dTm MR21 (4)): 2.7 °C
- ΔTm at 10 µM ([6]; read-out: dTm MR21 (4)): 0.2 °C
- ΔTm at 10 µM ([7]; read-out: dTm MR21 (4)): 0.6 °C
- ΔTm at 10 µM ([8]; read-out: dTm MR21 (4)): -1.2 °C
- ΔTm at 10 µM ([9]; read-out: dTm MR21 (4)): 0.7 °C
- ΔTm at 10 µM ([10]; read-out: dTm MR21 (4)): 0 °C
- ΔTm at 10 µM ([11]; read-out: dTm MR21 (4)): 2.9 °C

The remaining lines, values ahead:

- dTm G-5555 (2) ([1]; 10 µM, binder): 7.7 °C
- dTm G-5555 (2) ([2]; 10 µM, binder): -1.6 °C
- dTm G-5555 (2) ([3]; 10 µM, binder): 4.1 °C
- dTm G-5555 (2) ([4]; 10 µM, binder): 0.9 °C
- dTm G-5555 (2) ([5]; 10 µM, binder): 1.8 °C
- dTm G-5555 (2) ([6]; 10 µM, binder): 0.3 °C
- dTm G-5555 (2) ([7]; 10 µM, binder): 1.1 °C
- dTm G-5555 (2) ([8]; 10 µM, binder): 0.1 °C
- dTm G-5555 (2) ([9]; 10 µM, binder): 1.4 °C
- dTm G-5555 (2) ([10]; 10 µM, binder): -0.1 °C
- dTm G-5555 (2) ([11]; 10 µM, binder): 0.4 °C
SMILES: CNc1ncc2cc(-c3ccc(-c4cccc(C)n4)cc3Cl)c(=O)n(CC3OCC(N)CO3)c2n1 (stereo not shown) [compound 2, G-5555]

- ΔTm at 10 µM ([1]; read-out: dTm 6): 1.7 °C
- ΔTm at 10 µM ([2]; read-out: dTm 6): 1.2 °C
- ΔTm at 10 µM ([3]; read-out: dTm 6): 2.5 °C
- ΔTm at 10 µM ([4]; read-out: dTm 6): 0.4 °C
- ΔTm at 10 µM ([5]; read-out: dTm 6): 1.1 °C
- ΔTm at 10 µM ([6]; read-out: dTm 6): -0.5 °C
- ΔTm at 10 µM ([7]; read-out: dTm 6): -0.2 °C
- ΔTm at 10 µM ([8]; read-out: dTm 6): 0.2 °C
- ΔTm at 10 µM ([9]; read-out: dTm 6): 0.2 °C
- ΔTm at 10 µM ([10]; read-out: dTm 6): -0.1 °C
- ΔTm at 10 µM ([11]; read-out: dTm 6): 0.9 °C
SMILES: CNc1ncc2cc(-c3cc(Br)ccc3Cl)c(=O)n(CCCCN)c2n1 [compound 6, 8-(4-Aminobutyl)-6-(5-bromo-2-chlorophenyl)-2-(methylamino)pyrido[2,3-d]pyrimidin-7(8H)-one]

- ΔTm at 10 µM ([1]; read-out: dTm MR22 (5)): 0 °C
- ΔTm at 10 µM ([2]; read-out: dTm MR22 (5)): 1.1 °C
- ΔTm at 10 µM ([4]; read-out: dTm MR22 (5)): 0.4 °C
- ΔTm at 10 µM ([7]; read-out: dTm MR22 (5)): -0.1 °C
- ΔTm at 10 µM ([8]; read-out: dTm MR22 (5)): 0.4 °C
- ΔTm at 10 µM ([9]; read-out: dTm MR22 (5)): 0.5 °C
- ΔTm at 10 µM ([10]; read-out: dTm MR22 (5)): 0.2 °C
- ΔTm at 10 µM ([11]; read-out: dTm MR22 (5)): 1.3 °C
SMILES: CNc1ncc2cc(-c3cc(F)ccc3F)c(=O)n(CCCCN)c2n1 [compound 5, 8-(4-Aminobutyl)-6-(2,5-difluorophenyl)-2-(methylamino)pyrido[2,3-d]pyrimidin-7(8H)-one]
